This passage reports IC50 results from patent US12275729B2 (Merck Sharp & Dohme LLC, priority 2017, dated 2025).

For test [1], the target named is T1, IDO1 (Homo sapiens, UniProt P14902). Nature of the test: IDO1 Cellular Assay in HeLa Cells Stimulated with IFNγ. The class given is cell-based. As to conditions: read-out: Hela IC50.
Test [2] addresses T1, IDO1. Nature of the test: IDO1 Human Whole Blood Assay. The following applies: LPS and IFNγ stimulated. On the set-up: Human whole blood was drawn in sodium heparin coated tubes from healthy internal donors; from tissue; host or cells: human whole blood from healthy donors, stimulated with LPS and IFNγ. The class given is cell-based.

T1 sequence (P14902 whole entry): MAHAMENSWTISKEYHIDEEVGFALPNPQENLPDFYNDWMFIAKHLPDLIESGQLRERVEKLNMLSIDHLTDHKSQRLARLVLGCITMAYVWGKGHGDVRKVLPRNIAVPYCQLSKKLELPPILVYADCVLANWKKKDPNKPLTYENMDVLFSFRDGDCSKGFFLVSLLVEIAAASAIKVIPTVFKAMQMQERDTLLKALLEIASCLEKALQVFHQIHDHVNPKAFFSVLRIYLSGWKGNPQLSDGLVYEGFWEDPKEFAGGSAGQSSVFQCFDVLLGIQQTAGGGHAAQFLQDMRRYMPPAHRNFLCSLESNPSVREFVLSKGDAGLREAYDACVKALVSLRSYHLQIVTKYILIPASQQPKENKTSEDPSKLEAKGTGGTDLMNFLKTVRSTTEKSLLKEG

As to `O=C(N1CCCc2cc(C3(C(=O)Nc4ccc(F)cc4)CCC3)ccc21)C1(F)CC1` [Example 98, 1-[1-(1-fluorocyclopropane-1-carbonyl)-1,2,3,4-tetrahydroquinolin-6-yl]-N-(4-fluorophenyl)cyclobutane-1-carboxamide], the IC50 (as a rule, the midpoint of a concentration-inhibition curve) was found to be 3.3 nM in test [1] (about 48 hours) and 361 nM in test [2].
For the compound `O=C(OC1CC1)N1CCCc2nc(C3(C(=O)Nc4ccc(F)cc4)CCC3)ccc21` [Example 410, cyclopropyl 6-(1-((4-fluorophenyl)carbamoyl)cyclobutyl)-3,4-dihydro-1,5-naphthyridine-1(2H)-carboxylate], the IC50 amounted to 0.79 nM in test [1] and 70 nM in test [2].
`CC(C(=O)Nc1ccc(F)cc1)c1ccc2c(n1)CCCN2C(=O)[C@H]1CCCO1` (stereo partly drawn) [Example 137, N-(4-fluorophenyl)-2-(5-((R)-tetrahydrofuran-2-carbonyl)-5,6,7,8-tetrahydro-1,5-naphthyridin-2-yl)propanamide]: the IC50 in test [1] (about 48 hours) amounted to 12 nM; in test [2], 29 nM.
For `Cc1nccc(N2CCCc3nc(C(C)(C)C(=O)Nc4ccc(Cl)c(F)c4)ccc32)n1` [Example 391, N-(4-chloro-3-fluorophenyl)-2-methyl-2-(5-(2-methylpyrimidin-4-yl)-5,6,7,8-tetrahydro-1,5-naphthyridin-2-yl)propanamide], the half-maximal inhibitory concentration (IC50) is 5.7 nM in test [1] (about 48 hours) and 101 nM in test [2].
Consider `Cc1nccc(N2CCCc3nc(C4(C(=O)Nc5ccc(F)cc5)CC(F)(F)C4)ccc32)n1` [Example 420, 3,3-difluoro-N-(4-fluorophenyl)-1-(5-(2-methylpyrimidin-4-yl)-5,6,7,8-tetrahydro-1,5-naphthyridin-2-yl)cyclobutanecarboxamide], for which the IC50 in test [1] is 1.09 nM; in test [1] (value in running text) it was 1 nM; in test [2], 12 nM.
As to `Cc1nc(C(=O)N2CCCc3cc([C@H](C)C(=O)Nc4ccc(F)cn4)ccc32)no1` [Example 65, (2S)-N-(5-fluoropyridin-2-yl)-2-[1-(5-methyl-1,2,4-oxadiazole-3-carbonyl)-1,2,3,4-tetrahydroquinolin-6-yl]propanamide], the half-maximal inhibitory concentration (IC50) is 1.9 nM in test [1] (about 48 hours) and 2610 nM in test [2].
Consider `O=C(N[C@@H](c1ccc2c(n1)CCCN2C(=O)C1CC1)C(F)(F)F)c1ccc(F)cc1` [Example 425, (S)—N-(1-(5-(cyclopropanecarbonyl)-5,6,7,8-tetrahydro-1,5-naphthyridin-2-yl)-2,2,2-trifluoroethyl)-4-fluorobenzamide], for which the 50% inhibitory concentration (IC50) turned out to be 235 nM in test [1] and 29 nM in test [2].
The like results for `Cc1nccc(N2CCCc3nc(C4(C(=O)Nc5ccc(F)cc5)CC4(F)F)ccc32)n1` (single isomer, unassigned) [Example 421, 2,2-difluoro-N-(4-fluorophenyl)-1-(5-(2-methylpyrimidin-4-yl)-5,6,7,8-tetrahydro-1,5-naphthyridin-2-yl)cyclopropanecarboxamide] were, in that order, 2.64 nM and 65 nM.
As for `CC(NC(=O)c1ccc(F)cc1)c1ccc2c(n1)CCCN2C(=O)c1cc(Cl)ccn1` (centres unmarked) [Example 277, N-(1-(5-(4-chloropicolinoyl)-5,6,7,8-tetrahydro-1,5-naphthyridin-2-yl)ethyl)-4-fluorobenzamide], the IC50 came to 2.3 nM in test [1] (about 48 hours) and 71 nM in test [2].
On the same counts, the results for `Cc1nccc(N2CCCc3nc(C(C)(C)C(=O)Nc4ccc(Cl)cc4)ccc32)n1` [Example 390, N-(4-chlorophenyl)-2-methyl-2-(5-(2-methylpyrimidin-4-yl)-5,6,7,8-tetrahydro-1,5-naphthyridin-2-yl)propanamide] are 2.42 nM and 73 nM.
Consider `Cc1nccc(N2CCCc3nc(C4(C(=O)Nc5ccc(F)cc5)CC4(F)F)ccc32)n1` (single isomer, unassigned) [Example 422, 2,2-difluoro-N-(4-fluorophenyl)-1-(5-(2-methylpyrimidin-4-yl)-5,6,7,8-tetrahydro-1,5-naphthyridin-2-yl)cyclopropanecarboxamide], for which the concentration for half-maximal inhibition (IC50) was 1.7 nM in test [1] and 12 nM in test [2].
